Assay results taken from US20230067910A1, “NOVEL COMPOUNDS FOR THE DIAGNOSIS, TREATMENT AND PREVENTION OF DISEASES ASSOCIATED WITH THE AGGREGATION OF ALPHA-SYNUCLEIN” (MODAG GMBH, priority 2019, published 2023).

Assays:
[1] = tested on: H4 cells overexpressing alpha-synuclein hemi-Venus fusion constructs (V1S+SV2); assay: Cellular model of aggregated alpha-synuclein-dependent toxicity, V1S+SV2 H4 cells; type: cell-based; conditions: 10 μM compound, 100 μM FeCl3, 0.75% DMSO, 48 h; for inhibition at 10 µM: read-out: Change in fraction of condensed nuclei (rel. to DMSO control) [%]
Experimental: (§1) To identify potential therapeutically useful effects, compounds were tested in two cellular models of aggregated alpha-synuclein-dependent toxicity in H4 cells. These cellular models allow for the inducible overexpression of alpha-synuclein hemi-Venus fusion constructs (V1S+SV2) or full-length alpha-synuclein (the model is described in detail in: Bartels M, Weckbecker D, Kuhn P H, Ryazanov S, Leonov A, Griesinger C, Lichtenthaler S F, Bötzel K, Giese A: Iron-mediated aggregation and toxicity in a novel neuronal cell culture model with inducible alpha-synuclein expression, Sci. Rep. 2019 Jun. 24; 9(1):9100). Moreover, addition of DMSO and FeCl3 promotes the aggregation of alpha-synuclein which is associated with an increase in cytotoxicity. The cell culture assay uses these effects by determining the change in the number of cells and the change in the percentage of condensed nuclei, which is indicative of apoptosis, in order to obtain information on which compounds show the most promising effects and thus might be therapeutically useful.
(§2) In these experiments, cells were incubated with 100 μM FeCl3 and 0.75% DMSO in the presence of 10 μM anle138c as a positive control, compounds 1 to 19 (10 μM), or DMSO as a negative control. After 48 h, the cells were imaged with an OPERA high-throughput imaging system and analyzed using Acapella software (Perkin Elmer). […] A reduction in the fraction of condensed nuclei (in the absence of a strong reduction in cell number) is indicative of a beneficial therapeutic effect.

[2] = target: T1, alpha-synuclein (sonicated fibrils) (Homo sapiens, UniProt P37840); assay: Modified competition binding assay, protocol 3b, reference ligand [3H]-compound 2; conditions: Table 5, reference ligand [3H]-compound 2 (1 nM)
T1 construct: made in house; host or cells: E. coli
Experimental: Alpha-synuclein and tau46 were purified from E. coli according to established protocols (Nuscher B, et al., J. Biol. Chem., 2004; 279(21):21966-75), Aβ1-42 was obtained from rPeptide, Watkinsville, Ga., USA. Fibrils were prepared by aggregation of recombinant protein via constant agitation. In detail, 70 μM of alpha-synuclein mixed with 100 mM NaCl in 50 mM Tris, pH 7.0+0.02% NaN3 were incubated at 1,400 rpm, 37° C. for 96 h. 10 μM of tau46 were incubated with 0.03 mg/ml heparin in 50 mM Tris, pH=7.0 at 1,000 rpm, 37° C. for 72 h. Aβ1-42 was solved in 20 mM NaPi, pH=8.0+0.2 mM EDTA+0.02% NaN3 (Deeg A A, et al., Biochim. Biophys. Acta, 2015; 1850(9): 1884-90; Goedert M, et al. Nature, 1996; 383(6600): 550-3).
For competition binding experiments, a fixed concentration of recombinant αSYN fibrils (sonicated, 15 nM/well) was incubated with 1 nM [^3H]-compound 1 or [3H]-compound 2 and decreasing concentrations of a serial dilution of non-labeled competitor (serial dilution 1:4 or 1:3.5 or 1:3 providing the concentration ranges of non-labeled competitor 1 μM-[…] 1 μM-4 nM or 1 μM-[…], respectively) in 30 mM Tris-HCl, 10% ethanol, 0.05% Tween20, pH 7.4 in a total volume of 200 μL/well. Plates were incubated for 4.5 hours at RT covered by removable sealing tape (PerkinElmer, Waltham, Mass., USA).
Filtration and readout were performed as described for saturation binding assays. [^3H]-labeled ligand binding [in CMP] was plotted against increasing competitor concentrations and data points were fitted using non-linear regression analysis to calculate the IC50 and Ki values (GraphPad Software, Inc., Version 7.03, La Jolla (Calif.), USA). In the competition binding assay with sonicated recombinant αSYN fibrils, the calculation of Ki values was done based on KD values of 0.6 nM and 0.2 nM for compound 1 and compound 2, respectively.
The fibril competition assay provides Ki values. Ki is a quantitative measure that represents the concentration of the non-radioactive tested compound (competitor ligand) required to replace 50% of a reference compound, in this case [H]-compound 1 (1 nM) or [H]-compound 2 (1 nM), which is bound to the target structures (1 nM), in our case recombinant alpha-synuclein and tau46 fibrils. This assay is suitable for a screening of non-radioactive ligands.

[3] = target: T1, alpha-synuclein (sonicated fibrils); assay: Modified competition binding assay, protocol 3b, reference ligand [3H]-compound 1; conditions: reference ligand [3H]-compound 1 (1 nM)
Experimental: Fibrils were prepared by aggregation of recombinant protein via constant agitation. In detail, 70 μM of alpha-synuclein mixed with 100 mM NaCl in 50 mM Tris, pH 7.0+0.02% NaN3 were incubated at 1,400 rpm, 37° C. for 96 h. 10 μM of tau46 were incubated with 0.03 mg/ml heparin in 50 mM Tris, pH=7.0 at 1,000 rpm, 37° C. for 72 h.
Plates were incubated for 4.5 hours at RT covered by removable sealing tape (PerkinElmer, Waltham, Mass., USA).
Filtration and readout were performed as described for saturation binding assays.
The fibril competition assay provides Ki values. […] This assay is suitable for a screening of non-radioactive ligands.

[4] = tested on: H4 cells overexpressing full-length alpha-synuclein; assay: Cellular model of aggregated alpha-synuclein-dependent toxicity, full-length alpha-synuclein H4 cells; type: cell-based; conditions: 10 μM compound, 100 μM FeCl3, 0.75% DMSO, 48 h; for inhibition at 10 µM: read-out: Change in fraction of condensed nuclei (rel. to DMSO control) [%]
Experimental: as §1, §2

[5] = Table 4b, read-out: Ki (nM) alpha-synuclein (sonicated fibrils)
[6] = Table 6 comparison series, read-out: Ki (nM), sonicated alpha-synuclein fibrils

Row | SMILES | Ki [2] [nM] | Ki [3, 5] [nM] | Ki [3, 6] [nM] | Change in cell number (rel. to DMSO control) [%] [1] [%] | inhibition at 10 µM [1] [%] | Change in cell number (rel. to DMSO control) [%] [4] [%] | inhibition at 10 µM [4] [%]
1 | Cn1nc(-c2ccnc(Br)c2)cc1-c1ccc2c(c1)OCO2 [Compound 19, 4-[5-(1,3-benzodioxol-5-yl)-1-methyl-1H-pyrazol-3-yl]-2-bromopyridine] |  |  |  | −5.7 | -3.2 | −30.3 | 13.2
2 | Brc1cccc(-c2cc(-c3cc4c(cn3)OCO4)n[nH]2)c1 [Compound 20, 6-[3-(3-bromophenyl)-1H-pyrazol-5-yl]-1,3-dioxolo[4,5-c]pyridine] | 5.5 | 3.1 |  |  |  |  | 
3 | CNc1ccc(-c2cc(-c3cc(Br)ccn3)[nH]n2)cc1 [Compound 57, 4-[5-(4-bromopyridin-2-yl)-1H-pyrazol-3-yl]-N-methylaniline] | 2.8 | 3.3 |  |  |  |  | 
4 | CNc1ccc(-c2cc(-c3cccc(Br)c3)[nH]n2)cc1 [Compound 64, reference compound] |  |  | 3.4 |  |  |  | 

Second part, led by results:

Row | Ki [2] [nM] | Ki [3, 5] [nM] | Ki [3, 6] [nM] | SMILES | Change in cell number (rel. to DMSO control) [%] [1] [%] | inhibition at 10 µM [1] [%] | Change in cell number (rel. to DMSO control) [%] [4] [%] | inhibition at 10 µM [4] [%]
5 | 4.7 | 5.2 |  | Brc1ccnc(-c2cc(-c3ccc4c(c3)OCO4)n[nH]2)c1 [Compound 16, 2-[3-(1,3-benzodioxol-5-yl)-1H-pyrazol-5-yl]-4-bromopyridine] | −40.2 | -56.8 | −47.1 | -0.8
6 | 3.3 | 2.6 |  | CNc1ccc(-c2cc(-c3cncc(Br)c3)[nH]n2)cc1 [Compound 56, 4-[5-(5-bromopyridin-3-yl)-1H-pyrazol-3-yl]-N-methylaniline] |  |  |  | 
7 | 5 | 5.1 |  | CNc1ccc(-c2cc(-c3cccc(Br)n3)[nH]n2)cc1 [Compound 58, 4-[5-(6-bromopyridin-2-yl)-1H-pyrazol-3-yl]-N-methylaniline] |  |  |  | 
8 |  |  | 1.9 | CN(C)c1ccc(-c2cc(-c3cccc(Br)c3)[nH]n2)cc1 [Compound 65, reference compound] |  |  |  | 
